# Data as given in patent publication US20020028938A1, “Prostaglandin endoperoxide H synthase biosynthesis inhibitors” (priority 1997, published 2002).
# Experiments:
# [1] = target: T1, human amnionic whole cell cyclooxygenase-2 (WISH cells) (Homo sapiens, UniProt P35354); test: IL-1β induced PGE2 production in WISH cells; assay type: cell-based; conditions: read-out: Wish IC50 (parenthetical value)
# T1 construct: endogenous in cells; host or cells: human amnionic WISH cells, induced with IL-1beta
# T1 sequence (P35354 18-604): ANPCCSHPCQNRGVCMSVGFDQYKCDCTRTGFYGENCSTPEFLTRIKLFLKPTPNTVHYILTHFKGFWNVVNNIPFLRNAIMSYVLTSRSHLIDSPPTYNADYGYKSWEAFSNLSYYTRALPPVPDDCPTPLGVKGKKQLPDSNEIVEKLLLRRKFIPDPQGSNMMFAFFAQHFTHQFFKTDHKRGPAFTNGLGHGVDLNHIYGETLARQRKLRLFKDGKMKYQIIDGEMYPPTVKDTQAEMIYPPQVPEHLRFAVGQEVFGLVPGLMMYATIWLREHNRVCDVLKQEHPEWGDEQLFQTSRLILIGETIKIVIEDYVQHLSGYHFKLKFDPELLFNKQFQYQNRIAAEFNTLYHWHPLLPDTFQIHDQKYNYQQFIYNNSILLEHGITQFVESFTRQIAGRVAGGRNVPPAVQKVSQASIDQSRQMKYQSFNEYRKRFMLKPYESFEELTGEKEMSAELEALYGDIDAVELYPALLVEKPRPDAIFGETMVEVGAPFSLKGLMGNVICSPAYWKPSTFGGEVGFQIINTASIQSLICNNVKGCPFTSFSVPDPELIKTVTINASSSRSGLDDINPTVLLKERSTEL
# Summary of the method: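 PGE2 was quantified by enzyme immunoassay (optical density read) against standards made up in the matching medium. WISH cells at 80% confluence, washed and placed in serum-free Neuman-Tytell medium, received 5 ng/ml IL-1β plus test compound or DMSO vehicle (0.01% v/v).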
# [2] = system: air pouch prostaglandin biosynthesis (Cox-2); test: Carrageenan induced air pouch prostaglandin biosynthesis model (CAP); assay type: in vivo, rat; conditions: for CAP % Inhib. @ 3 mpk / inhibition in vivo at 3 mg/kg: rat, 3 mpk; for inhibition in vivo at 3 mg/kg: 4 h, read-out: CAP % Inhib. @ 3 mpk
# Method: (§1) To compare the mean responses of the treatment groups, analysis of variance was applied. Percent inhibition values were determined by comparing the individual treatment mean values to the mean of the control group. Linear regression was used to estimate IC50's/ED50's in appropriate assays.
# Carrageenan induced air pouch prostaglandin biosynthesis model (CAP) Air pouches are formed in the backs of male Sprague Dawley rats by injecting 20 mL of sterile air on day 0. Three days later the pouch was reinflated with an additional 10 mL of sterile air. On day 7, 1 mL of saline containing 0.2 % lambda carrageenan (Sigma Chemical Co.) is injected into the pouch to induce the inflammatory reaction that is characterized by the release of prostaglandins. Test compounds are dosed at 0.1 to 10 mg/kg 30 minutes prior to carrageenan. Four hours after the carrageenan injection the pouch is lavaged and levels of prostaglandins are determined by enzyme immuno-assay using commercially available kits. […] Values for Cox-2 inhibition that are parenthetical indicate ED50 values.
# [3] = target: T2, Human Whole Platelet Cyclooxygenase-1 (Homo sapiens, UniProt P23219); test: Human Whole Platelet Cyclooxygenase-1 assay (HWPX); assay type: cell-based; conditions: for IC50: read-out: HWPX IC50 (parenthetical value)
# T2 construct: from tissue; host or cells: human blood: isolated platelets (A4) or heparinised whole blood (A9)
# T2 sequence (P23219 24-599): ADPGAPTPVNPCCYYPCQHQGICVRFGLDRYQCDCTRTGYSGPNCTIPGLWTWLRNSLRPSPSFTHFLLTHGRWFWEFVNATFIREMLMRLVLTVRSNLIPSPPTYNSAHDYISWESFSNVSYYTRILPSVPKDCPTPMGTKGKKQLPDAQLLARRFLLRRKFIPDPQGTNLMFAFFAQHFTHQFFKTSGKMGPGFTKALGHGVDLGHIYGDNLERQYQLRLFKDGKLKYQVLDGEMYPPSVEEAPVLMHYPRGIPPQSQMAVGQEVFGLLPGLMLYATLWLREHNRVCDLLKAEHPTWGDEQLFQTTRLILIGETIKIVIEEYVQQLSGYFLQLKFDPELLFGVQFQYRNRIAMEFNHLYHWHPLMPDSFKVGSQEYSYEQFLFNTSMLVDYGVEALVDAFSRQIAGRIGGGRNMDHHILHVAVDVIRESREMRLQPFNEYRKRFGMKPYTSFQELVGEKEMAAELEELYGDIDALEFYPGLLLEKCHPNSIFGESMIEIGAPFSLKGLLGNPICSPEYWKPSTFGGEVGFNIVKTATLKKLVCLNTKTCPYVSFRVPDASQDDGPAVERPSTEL
# Summary of the method: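 Thromboxane production was measured with a commercial kit after stimulation of washed human platelets (ACD-anticoagulated volunteer blood) by 8.8 μM final A23187 for 10 min. Test compounds were added 10 min before stimulus; cold 6 mM EDTA terminated the reaction.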
# [4] = target: T3, recombinant human Cox-2 (r-hu Cox-2) (Homo sapiens, UniProt P35354); test: Recombinant human PGHS-2 enzyme assay (RHUCX2); assay type: biochemical; conditions: for IC50: read-out: RHUCX2 IC50 (parenthetical value)
# T3 construct: made in house; host or cells: baculovirus/Sf9 insect cells (microsomes)
# T3 sequence (P35354 18-604): T1 sequence (P35354 18-604)
# Summary of the method: (§2)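 PGE2 by EIA (optical density) → % inhibition vs control-group mean → IC50 from linear regression.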
# [5] = target: T4, recombinant human Cox-1 (r-hu Cox1) (Homo sapiens, UniProt P23219); test: Recombinant human PGHS-1 enzyme assay (RHUCX1); assay type: biochemical; conditions: read-out: RHUCX1 % Inh. at Dose
# T4 construct: made in house; host or cells: baculovirus/Sf9 insect cells (microsomes)
# T4 sequence (P23219 24-599): as above
# Summary of the method: as §2
# [6] = system: carrageenan induced paw edema; test: Carrageenan induced paw edema (CPE) in rats; assay type: in vivo; conditions: 10 mpk oral, rat, 3 hours after carrageenan; read-out: CPE % Inhib. @ 10 mpk
# Method: For oral administration, test compounds were suspended on the day of use in 100% polyethyleneglycol (PEG 400) with a motorized homogenizer equipped with a Teflon-coated pestle (TRI-R Instrument, Jamaica, N.Y.).
# as §1
# Hingpaw edema was […] in male rats as described by Winter et al., Proc. Soc. Exp. Biol. Med., 1962, 111, 544. Briefly, male Sprague-Dawley rats weighing between 170 and 190 g were administered test compounds orally 1 hour prior to the subplantar injection of 0.1 ml of 1% sodium carrageenan (lambda carrageenan, Sigma Chemical Co., St Louis, Mo.) into the right hindpaw. Right paw volumes (ml) were measured immediately following injection of carrageenan for baseline volume measurements using a Buxco plethysmograph (Buxco Electronics, Inc., Troy, N.Y.). Three hours after the injection of carrageenan, right paws were remeasured and paw edema calculated for each rat by subtracting the zero time reading from the 3 hour reading. Data are reported as mean percent inhibition +/−SEM. Statistical significance of results was analyzed by Dunnetts multiple comparison test where p<0.05 was considered statistically significant.
# [7] = read-out: RHUCX2 % Inh. at Dose
Compound,IC50 [1] [µM],IC50 [3] [µM],IC50 [4] [µM],melting point [°C],inhibition in vivo at 3 mg/kg [2] [%],inhibition at 100 µM [5] [%],other results
2-(3-Methyl-2-butenyl)-4-(4-fluorophenyl)-5-[3-fluoro-4-(aminosulfonyl)phenyl]-3(2H)-pyridazinone [Example 123],0.001,,,,,,CAP % Inhib. @ 3 mpk [2]: 23%; HWPX % Inhib. at Dose (μM) ([3]; 0.1 μM): 29 @ .1%; HWPX % Inhib. at Dose (μM) ([3]; 1 μM): 90 @ 1%
2-(4-Fluorophenyl)-4-(4-fluorophenoxy)-5-[4-(aminosulfonyl)phenyl]-3(2H)-pyridazinone [Example 385],0.023,2.18,,,,,CAP % Inhib. @ 3 mpk [2]: 65%
"CS(=O)(=O)c1ccc(-c2cnn(-c3ccc(F)c(F)c3)c(=O)c2-c2ccc(Cl)cc2)cc1 [Example 106, 2-(3,4-Difluorophenyl)-4-(4-chlorophenyl)-5-[4-(methylsulfonyl)phenyl]-3(2H)-pyridazinone]",0.03,17.5,0.135,187 to 188,47,,inhibition at 200 µM ([5]; 200 μM): 19%
"CS(=O)(=O)c1ccc(-c2cnn(-c3cccc(Cl)c3)c(=O)c2Oc2ccc(F)cc2)cc1 [Example 112, 2-(3-Chlorophenyl)-4-(4-fluorophenoxy)-5-[4-(methylsulfonyl)phenyl]-3(2H)-pyridazinone]",,,0.136,211 to 213,42.5,5,inhibition in vivo at 10 mg/kg [6]: 21%
"NS(=O)(=O)c1ccc(-c2cnn(Cc3ccc(F)c(F)c3F)c(=O)c2-c2ccc(F)cc2)cc1 [Example 153, 2-(2,3,4-Trifluorobenzyl)-4-(4-fluorophenyl)-5-[4-(aminosulfonyl)phenyl]-3(2H)-pyridazinone]",0.046,2.95,0.062,218 to 220,51,54,inhibition at 10 µM [5]: 35%
CC(C)CCc1c(-c2ccc(S(N)(=O)=O)c(F)c2)cnn(CC(F)(F)F)c1=O [Example 226],,,1.09,,40.5,0,inhibition in vivo at 10 mg/kg [6]: 21%
"CS(=O)(=O)c1ccc(-c2cnn(-c3ccc(F)c(Cl)c3)c(=O)c2Cc2ccccc2)cc1 [Example 248, 2-(3-Chloro-4-fluorophenyl)-4-benzyl-5-[4-(methylsulfonyl)phenyl]-3(2H)-pyridazinone]",0.005,,0.08,,49,13,"inhibition at 10 µM ([3]; 10 μM, read-out: HWPX % Inhib. at Dose): 17%; inhibition at 30 µM ([3]; 30 μM, read-out: HWPX % Inhib. at Dose): 82%"
CC(C)CCc1c(-c2ccc(S(C)(=O)=O)cc2)cnn(-c2ccc(F)c(F)c2)c1=O [Example 256],0.028,4.7,0.134,55 to 58,47,0,
"CC(C)CCOc1c(-c2ccc(S(C)(=O)=O)cc2)cnn(C(C)(C)C)c1=O [Example 330, 2-(tert-Butyl)-4-(3-methylbutoxy)-5-[4-(methylsulfonyl)phenyl]-3(2H)-pyridazinone]",0.005,16.7,,,4.5,15,"inhibition at 0.01 µM [4, 7]: 5%; inhibition at 0.03 µM ([4]; 0.03 μM, read-out: RHUCX2 % Inh. at Dose): 72%; inhibition at 1 µM [4, 7]: 85%"
"CC(C)CCOc1c(-c2ccc(S(C)(=O)=O)cc2)cnn(-c2ccc(F)c(F)c2)c1=O [Example 347, 2-(3,4-Difluorophenyl)-4-(3-methyl-1-butoxy)-5-[4-(methylsulfonyl)phenyl]-3(2H)-pyridazinone]",,,0.075,121 to 123,66.5,11,inhibition in vivo at 10 mg/kg [6]: 27%
CC(C)(C)COc1c(-c2ccc(S(C)(=O)=O)cc2)cnn(-c2ccc(F)c(F)c2)c1=O [Example 349],0.041,,0.086,126 to 128,63,0,"inhibition at 100 µM ([3]; 100 μM, read-out: HWPX % Inhib. at Dose): 34%"
"CC(C)CCc1c(-c2ccc(S(C)(=O)=O)cc2)cnn(-c2cccc(Cl)c2)c1=O [Example 366, 2-(3-Chloropenyl)-4-(3-methylbutyl)-5-[4-(methysulfonyl)phenyl]-3(2H)-pydazinone]",0.002,1.61,0.03,60 to 65,63,0,ED50 ([2]; Rattus norvegicus): 1.5 mg/kg
"CS(=O)(=O)c1ccc(-c2cnn(-c3cccc(Cl)c3)c(=O)c2Cc2ccccc2)cc1 [Example 367, 2-(3-Chlorophenyl)-4-benzyl-5-[4-(methylsulfonyl)phenyl]-3(2H)-pyridazinone]",0.018,,0.077,174 to 177,48,0,"inhibition at 0.3 µM ([3]; 0.3 μM, read-out: HWPX % Inhib. at Dose): 8%; inhibition at 1 µM ([3]; 1 μM, read-out: HWPX % Inhib. at Dose): 50%"
"CC(C)COc1c(-c2ccc(S(C)(=O)=O)cc2)cnn(-c2ccc(F)cc2)c1=O [Example 376, 2-(4-Fluorophenyl)-4-(2-methylpropoxy)-5-[4-(methylsulfonyl)phenyl]-3(2H)-pyridazinone]",,,0.027,121 to 128,77.5,12,inhibition in vivo at 10 mg/kg [6]: 17%
"CC(C)CCc1c(-c2ccc(S(N)(=O)=O)cc2)cnn(-c2cccc(Cl)c2)c1=O [Example 392, 2-(3-Chlorophenyl)-4-(3-methylbutyl)-5-[4-(aminosulfonyl)phenyl]-3(2H)-pyridazinone]",0.02,1.95,,167 to 170,60,56,"inhibition at 0.01 µM [4, 7]: 65%; inhibition at 0.1 µM [4, 7]: 82%; inhibition at 10 µM [5]: 35%"
"CC(C)COc1c(-c2ccc(S(N)(=O)=O)cc2)cnn(-c2ccc(F)cc2)c1=O [Example 397, 2-(4-Fluorophenyl)-4-(2-methylpropoxy)-5-[4-(aminosulfonyl)phenyl]-3(2H)-pyridazinone]",0.04,13.8,,132 to 136,70,25,"inhibition at 0.01 µM [4, 7]: 39%; inhibition at 0.1 µM [4, 7]: 58%; inhibition at 1 µM [4, 7]: 93%"
